Entries after “also recorded” stand apart in the source; their conditions may differ. Peptide text beside a SMILES is read from it.
Experiments:
HIV = conditions: first and second stages of clinical trials; cited from earlier work
gp41 N-peptide = molecular target: T1, gp41 N-peptide (Human immunodeficiency virus type 1 group M subtype B, UniProt P04578); assay: stability by melting curve (circular dichroism) of peptide complexed with gp41 N-peptide; assay type: physicochemical, HIV-1
T1 construct: The peptide solution containing Fusonex and gp41 N-peptide (35-70) was measured
Experimental: This experiment determined the stability of a polypeptide by measuring its melting curve at different temperatures. The experiment was carried out on Aviv 62A DS circular dichroism spectrum apparatus. The temperature range for heating peptide solution was from 20° C. to 95° C.

HIV-1 gp160HXB = molecular target: T2, HIV-1 gp160HXB (Human immunodeficiency virus type 1 group M subtype B, UniProt P04578); assay: cell-cell fusion assay (luciferase reporter, synplasm formation induced by HIV-1 gp160HXB); assay type: cell-based
T2 construct: expressed in transfected cells; host or cells: 293T cells
T2 sequence (P04578 512-856): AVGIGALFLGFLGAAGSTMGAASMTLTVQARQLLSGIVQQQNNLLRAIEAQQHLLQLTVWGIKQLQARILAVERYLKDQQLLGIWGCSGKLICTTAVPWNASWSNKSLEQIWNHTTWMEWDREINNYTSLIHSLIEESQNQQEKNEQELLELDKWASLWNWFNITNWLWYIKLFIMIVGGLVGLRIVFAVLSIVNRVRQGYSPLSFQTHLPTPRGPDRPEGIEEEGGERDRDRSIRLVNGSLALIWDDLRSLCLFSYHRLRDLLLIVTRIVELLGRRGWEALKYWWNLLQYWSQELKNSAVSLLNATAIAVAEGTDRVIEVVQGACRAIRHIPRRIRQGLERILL
Text: The specific experiment methods are as follows: The T7 promoter was inserted into the pSP64 upstream sequence of the cloning site to assemble a luciferase reporter gene plasmid—Pst7luc. The internal ribozyme entry site (IRES) of encephalomyocarditis virus (CMCV) was linked with the 5′-terminal of luciferase gene as well as the downstream area of T7 promoter. CD4 gene, T7 polymerase gene, and HIV-1 gp160HXB gene were subcloned into the mammalian expression plasmid—PMT3.
In a 10 cm culture dish, the 293T cells were transferred by Calcium Phosphate Method. Equal quantities of gp160HXB gene and T7 polymerase gene were used to transfect the effector cells, and pSP64 and CD4 gene were used to transfect the target cells. The PMT3 plasmid in the absence of gp160HXB or CD4 gene was set as a negative control.
The cells with non-serous DMEM were rinsed, after the DNA precipitate was added. The cells were cultured for 30-40 minutes at 37° C. in 9 ml/dish non-serous DMEM. […]
The solution as a stock solution was put to serial dilution in culture medium before use. […] Two minutes after adding luciferase substrate to the black 96-well culture plate, measure the chemical fluorescence intensity with Spex fluorolog-3 fluorimeter, the emission wavelength being 552 nm and slit breadth being 7 mm. The average and standard deviation were calculated from the three data of each concentration point.

T1 sequence (P04578 546-581): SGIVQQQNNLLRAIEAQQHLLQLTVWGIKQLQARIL

Row | Molecule | toxicity against the spinal cord (HIV) | stability compared with T-20 (melting curve) (gp41 N-peptide; FIG. 4) | 50% melting temperature (gp41 N-peptide; heating 20° C. to 95° C.) [°C] | IC50 (HIV-1 gp160HXB) [nM] | inhibiting activity compared with T-20 (cell fusion induced by HIV-1 gp160HXB) (HIV-1 gp160HXB; at the same concentration, FIG. 5)
1 | enfuvirtide | no toxicity against the spinal cord | – | – | – | –
2 | CC[C@H](C)[C@H](NC(=O)[C@H](CCC(=O)O)NC(=O)[C@H](CCCNC(=N)N)NC(=O)[C@H](CCC(=O)O)NC(=O)[C@H](Cc1c[nH]c2ccccc12)NC(=O)[C@@H](NC(=O)[C@H](CCC(=O)O)NC(=O)[C@H](Cc1c[nH]c2ccccc12)NC(=O)[C@H](CO)NC(C)=O)[C@@H](C)O)C(=O)N[C@@H](CCC(=O)O)C(=O)N[C@@H](CC(N)=O)C(=O)N[C@@H](Cc1ccc(O)cc1)C(=O)N[C@H](C(=O)N[C@@H](CCCCN)C(=O)N[C@@H](CCC(N)=O)C(=O)N[C@H](C(=O)N[C@@H](Cc1ccc(O)cc1)C(=O)N[C@@H](CCCCN)C(=O)N[C@H](C(=O)N[C@@H](CC(C)C)C(=O)N[C@@H](CCC(=O)O)C(=O)N[C@@H](CCC(=O)O)C(=O)N[C@@H](CO)C(=O)N[C@@H](CCC(N)=O)C(=O)N[C@@H](CCC(=O)O)C(=O)N[C@@H](CCC(N)=O)C(=O)N[C@@H](CCC(N)=O)C(=O)N[C@@H](CC(=O)O)C(=O)N[C@@H](CCCNC(=N)N)C(=O)N[C@@H](CC(N)=O)C(=O)N[C@@H](CCC(=O)O)C(=O)N[C@@H](CCCCN)C(=O)N[C@@H](CC(=O)O)C(=O)N[C@@H](CC(C)C)C(=O)N[C@@H](CC(C)C)C(=O)N[C@@H](CCC(=O)O)C(N)=O)[C@@H](C)CC)[C@@H](C)CC)[C@@H](C)O [Fusonex] (Ac-SWETWEREIENYTKQIYKILEESQEQQDRNEKDLLE-NH2) | – | higher than that of T-20; also recorded: more stable than T-20 | 70 | 1.2 ± 0.2 | better inhibiting activity than T-20
